Experimental data as given in patent publication US6352833B1, “Methods for discovery of vasoactive compounds for the nitric oxide-cyclic GMP signal pathway” (priority 1999, dated 2002).

Experiments:
[1] = test system: TXA2-specific GTPase in human platelet membranes; assay: TXA2 receptor-coupled GTPase activity in human platelet membranes; type: biochemical
Description: Platelets were prepared from plateletpheresis units as described (Benka, M. L. et al., 1995, supra; Zhu, Y. et al., 1994, supra).
TXA2-stimulated GTPase activity was measured in platelet membranes by initiating reactions by the addition of 20-45 μg of platelet membranes to tubes in the absence or presence of 10 μM of the thromboxane analog, U46619, (Benka, M. L. et al., The MBL Physiology Course, Busa, W. B. & Mendelsohn, M. E., 1995, FEBS Lett. 363: 49-52). The final reaction mixture (total volume=100 μl) contained 0.4 μM GTP, including 0.6-0.9 μCi of [γ-^32P]GTP(1.5-2×10^6 dpm), as well as 100 mM NaCl, 0.1 mM EGTA, 2 mM MgCl2, 1 mM dithiothreitol, 0.1 mM ATP, 5 mM phosphocreatine, 100 units/ml creatine phosphokinase, 0.2% bovine serum albumin, 50 mM triethanolamine HCl, pH 7.4, and indicated concentrations of agonist.
[…] GTPase reactions were terminated with 5% activated charcoal/20 mM phosphoric acid, and high affinity GTPase activity was measured and calculated (Shenker, A. et al., 1991, J. Biol. Chem. 268: 26011-26017; Benka et al., supra).

[2] = test system: Gαq/Gα11; assay: Immunoprecipitation of Gαq/Gα11 from 32P-labeled platelets; type: cell-based, human; details: 32P-labeled platelets treated with compound
Source text: (§1) In separate immunoprecipitation experiments, we also examined whether Gαq/Gα11 or its effector PLCβ, were phosphorylated in response to NO or cGMP. Anti-Gαq/Gα11 antibodies were obtained from D. Manning (University of Pennsylvania; Woolkalis, M. J. et al., 1986, J. Biol. Chem. 261:3408-3413).

[3] = biological target: T1, TXA2 receptor (Homo sapiens, UniProt P21731); assay: In vivo phosphorylation of TXA2 receptors in 32P-labeled HEL cells; type: cell-based
T1 construct: HEL cells, which contain high densities of the platelet TXA2 receptor; endogenous in cells; host or cells: HEL cells
T1 sequence (P21731 1-343): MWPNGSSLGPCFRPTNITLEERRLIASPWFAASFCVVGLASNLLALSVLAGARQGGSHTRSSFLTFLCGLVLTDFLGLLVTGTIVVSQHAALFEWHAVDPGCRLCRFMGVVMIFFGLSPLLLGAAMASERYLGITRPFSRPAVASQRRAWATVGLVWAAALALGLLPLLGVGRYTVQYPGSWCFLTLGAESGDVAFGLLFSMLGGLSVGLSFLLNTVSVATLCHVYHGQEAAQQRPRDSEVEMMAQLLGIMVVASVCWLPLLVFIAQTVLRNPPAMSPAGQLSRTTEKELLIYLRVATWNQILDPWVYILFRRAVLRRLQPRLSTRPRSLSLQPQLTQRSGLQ
Description: To examine whether cGMP can lead to phosphorylation of TXA2 receptors in vivo, studies were performed using HEL cells, which contain high densities of the platelet TXA2 receptor (Allan, C. J. et al., 1996, J. Pharmacol. Exp. Ther. 277:1132-1139; Mayeux, P. R. et al., 1989, J. Pharmacol. Exp. Ther. 250:923-927).
HEL cells were labeled with ^32P (Mendelsohn, M. E. et al., 1991, supra) and then exposed to buffer alone (10 minutes), U46619 (5 μM, 10 minutes), or 8-Br-cGMP (10 mM, 15 minutes). Reactions were terminated by addition of ice-cold TEB buffer: 20 mM Tris-Cl, pH 7.4, 5 mM EGTA, 0.128 mg/ml phenylmethylsulfonyl fluoride, 0.15 mg/ml benzamidine Cl, followed by preparation of solubilized TXA2 receptor fractions in CHAPS buffer: 20 mM Tris-Cl, pH 7.4, 5 mM EGTA, 25% glycerol, 0.128 mg/ml phenylmethylsulfonyl fluoride, 0.15 mg/ml benzamidine Cl, 10 mM CHAPS (Schror, K. et al., 1995, Biochem. Pharmacol. 49: 921-927). TXA2 receptor fractions were then purified on and eluted from TXA2 antibody affinity beads, resolved by SDS-PAGE, and transferred to nitrocellulose. Receptor was quantified by immunoblotting and phosphorylation was quantitated by PhosphorImager analysis (Mendelsohn, M. E. et al., 1991, supra). […]

[4] = test system: PLCβ; assay: PLCβ phosphorylation in platelets (PLCβ antibodies); type: cell-based, human; details: monoclonal and polyclonal PLCβ antibodies
Source text: as §1

[5] = test system: thrombin receptor; assay: Thrombin receptor-mediated vascular smooth muscle cell activation; type: cell-based; details: FIG. 6A-6C; effect reversed by inhibition of G kinase
Source text: The activation of vascular smooth muscle cells by thrombin receptor is inhibited by nitric oxide (FIG. 6A). […] This effect is reversed by inhibition by G kinase.

Row | Compound | Gαq/Gα11 G protein phosphorylation [2] | phosphorylation of PLCβ [4] | inhibition of thrombin receptor-mediated vascular smooth muscle cell activation [5] | also measured
1 | Nc1nc2c(nc(Br)n2[C@@H]2O[C@@H]3COP(=O)(O)O[C@H]3[C@H]2O)c(=O)[nH]1 [8-Br-cGMP, 8-bromo-cyclic GMP] | did not demonstrate any significant G protein phosphorylation |  |  | IC50 ([1]; platelet membranes pretreated 10 minutes at room temperature before U46619 stimulation, n=3 experiments in triplicate, read-out: mean IC50, inhibition of U46619-stimulated GTPase activity): 75 nM; decrease of basal platelet membrane GTPase activity ([1]; pretreatment with 500 μm 8-Br-cGMP, n=4): 8±9%; TXA2 receptor phosphorylation ([3]; 10 mM, 15 minutes): clear and significant increases in TXA2 receptor phosphorylation to a level comparable with agonist-induced phosphorylation
2 | CC(=O)N[C@@H](CSN=O)C(=O)O [S-nitroso-N-acetylcysteine] | did not demonstrate any significant G protein phosphorylation |  |  | 
3 | CCCCC[C@H](O)/C=C/[C@@H]1[C@@H](C/C=C\CCCC(=O)O)[C@H]2CO[C@@H]1C2 [U46619] |  |  |  | average increase in GTPase activity (stimulation of TXA2-specific GTPase) ([1]; untreated platelet membranes, 10 μM U46619, n=three experiments in triplicate): 5.5±1.3 pmol of 32P/min/mg platelet pr; TXA2 receptor phosphorylation ([3]; 5 μM, 10 minutes): phosphorylated
4 | Nc1nc2c(ncn2[C@@H]2O[C@@H]3COP(=O)(O)O[C@H]3[C@H]2O)c(=O)[nH]1 [cyclic GMP] |  | no increase in phosphorylation of PLCβ | inhibition | 
5 | [N]=O [nitric oxide] |  | no increase in phosphorylation of PLCβ | inhibited | 
